What was measured:
[1] = molecular target: T1, SusD1 (SusD1Δ1–22) (Prevotella sp. Sc00044, UniProt W5QTG3); assay: SPR, Biacore T200, His-captured protein, single-cycle kinetics, […] fit; assay type: binding
T1 construct: gene susD; Sec/SPII signal peptide 1-22 removed; C-terminal His6 from pET21a(+); expressed in E. coli BL21(DE3)

[2] = molecular target: T2, SusD38489 (SusD38489Δ1–25); assay: as above; design: species or system uncultured Bacteroidota bacterium; conditions: 25 °C; 0.1 M potassium phosphate pH 7 reference buffer; one binding site
T2 construct: gene susD; Sec/SPII signal peptide 1-25 removed; C-terminal His6 from pET21a(+); expressed in E. coli BL21(DE3)

T1 sequence (W5QTG3 23-580 limits assumed, stated change not applied): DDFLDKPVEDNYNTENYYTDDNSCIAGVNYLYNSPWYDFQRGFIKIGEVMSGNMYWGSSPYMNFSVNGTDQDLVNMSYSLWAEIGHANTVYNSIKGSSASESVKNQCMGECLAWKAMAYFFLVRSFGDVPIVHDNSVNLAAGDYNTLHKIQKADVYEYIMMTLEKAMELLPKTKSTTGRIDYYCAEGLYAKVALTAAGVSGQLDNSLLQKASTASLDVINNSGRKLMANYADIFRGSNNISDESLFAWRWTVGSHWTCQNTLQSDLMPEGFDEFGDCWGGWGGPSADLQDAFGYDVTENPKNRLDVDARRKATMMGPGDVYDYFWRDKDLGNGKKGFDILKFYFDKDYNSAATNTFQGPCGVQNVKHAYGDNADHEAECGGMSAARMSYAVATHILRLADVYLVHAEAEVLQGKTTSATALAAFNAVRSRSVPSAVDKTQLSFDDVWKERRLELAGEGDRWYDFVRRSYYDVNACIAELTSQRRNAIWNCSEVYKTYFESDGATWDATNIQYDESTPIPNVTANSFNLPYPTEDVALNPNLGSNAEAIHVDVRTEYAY

O=C(OCCO)c1ccc(C(=O)OCCO)cc1 [BHET, Bis(2-Hydroxyethyl) terephthalate]
Kd [1]: 0.3 nM | Kd [2]: 10 nM
